Laboratory results taken from patent publication US12486255B2, “Modulators of RAS GTPase” (Tosk, Inc., priority 2018, dated 2025).
pIC50: −log10 of the molar value. Entries after “also recorded” stand apart in the source; their conditions may differ.

Tests used:
[1] = tested on: phosphorylated ERK 1/2 (T202/Y204); experiment: Phosphorylated ERK bioassay (Western blot, SW480 cells); format: cell-based, human; conditions: 3 μM, 24 hours, in the presence of serum
Procedure: As described herein, the main downstream target for kRAS is ERK (Samatar et al., Targeting RAS-ERK signaling in cancer: promises and challenges. Nat Rev Drug Discov. 2014; 13:928-42). kRAS activates ERK leading to phosphorylated ERK. A compound that suppresses kRAS activity is expected to lower phosphorylated ERK.
Test articles abrogate the expression of phosphorylated ERK (T202/Y204) SW480 cells were subjected to test article incubation at 3 μM for 24 hours in the presence of serum to mimic natural growth environment. Cells were extracted and total protein of samples normalized through BCA assay. Processed extracts were subjected to SDS-PAGE/Western blot and blotted for phosphorylated ERK 1/2 (T202/Y204); ERK 1/2; and α-Tubulin.
The compound U0126 in FIG. 8 is a MEK inhibitor which is known to suppress phosphorylation of ERK. The compound was tested along with the test articles to serve as a positive control.

[2] = tested on: cardiomyocyte cell line H9C2; experiment: Cytotoxicity assay, H9C2 cells; format: cell-based; conditions: rat cardiomyocyte cell line H9C2
[3] = Multi-day safety study in mice; format: in vivo; conditions: female CD1 mice, 2 mg/kg ip daily for 6 days
Procedure: The multi-day safety study used female, 10 week old, CD1 mice (4/treatment group) dosed with DMSO. Mice were administered 2 mg/kg of Structure 2 or 10 mg/kg Structure 3, ip, daily for 6 days and evaluated for changes clinical chemistry values, hematology values and animal weight as well as signs of health and grooming habits.
Heparinized blood samples were obtained by retro-orbital puncture on Day 6, 12 hours after the last dose of Structure 2. The plasma harvested from the blood was analyzed for standard clinical chemistry parameters (ALB. ALP, ALT, AMY, TBIL, BUN, CA, PHOS, CRE GLU, NA, K, TP & GLOB) and hematology (WBC, LYM, MON, GRA, RBC, HGB, HCT, MCV, MCH, MCHC, RDWc, PLT, PCT, MPV, PDWc) analytes (see definitions herein). Animal weight changes were also monitored. Values for all analytes were analyzed by one way ANOVA plus post-hoc Bonferroni using SPSS (IBM, Armonk, NY).

[4] = tested on: SW480 cells implanted into nu/nu mice; experiment: Xenograft study; format: in vivo, nude mice (nu/nu); conditions: SW480 subcutaneous tumors in nu/nu mice, 2 mg/kg ip, 24 days post treatment, p<0.028 Student's t-test
Procedure: FIG. 10 Effect of Structure 2 on growth of SW480 cells implanted into nu/nu mice. Boxplots showing tumor volumes in nude mice 24 days post treatment ip with either 2 mg/kg Structure 2 or vehicle control (DMSO). Subcutaneous tumors were induced by subcutaneous inoculation in the right flank of 3×10^6 human colon cancer cell line SW480 in Matrigel. Treatment with Structure 2 was initiated 6 days post tumor implantation. Structure 2 was administrated ip at 2 mg/kg, while control was given vehicle DMSO. All animals were sacrificed at day 30. […] In the Figure, (*) designates p<0.028 compared to vehicle control by Student's t-test.
Female nude mice (nu/nu) were purchased from Simonsen Laboratories (Gilroy, CA). All experiments were performed with 4 to 6-week-old female mice. Mice were housed in a barrier unit in the Tosk Animal facility, kept in filter-top cages with water and food provided ad libitum, and were checked at least twice a week for clinical signs of disease and discomfort. Subcutaneous tumors are induced by subcutaneous inoculation in the right flank of 3×10^6 human colon cancer cell line SW480 in Matrigel. The tumors are allowed to grow and volumes (mm^3) are calculated weekly from digital caliper measurements as 0.5×length×width^2. Treatment was initiated 6 days post tumor implantation. Structure 2 was administrated ip at 2 mg/kg, while control was given vehicle DMSO. […]

Capan-1 cells = experiment: Cytotoxicity assay, CellTiter-Glo 2.0, Capan-1 cells; format: cell-based; conditions: Capan 1, human pancreatic cancer cell line expressing kRAS G12V; 48 hours
Procedure: FIG. 5, panels A-B, illustrates the cytotoxicity of Structure 2 and Structure 3 on Capan-1 cells. The cytotoxicity of compounds of interest were tested against the human pancreatic cancer cell line Capan-1 as described in the experimental section. Capan-1 cells express a mutant G12V kRAS. Compounds were incubated with cells for 48 hours and the assay was developed using Cell Titer Glo 2.0. IC50 vales were determined using GraphPad Prism 4.
Compounds were assayed for inhibition of cell proliferation and killing cancer cells. Cytotoxicity assays were conducted according to the following general procedure. SW480, SW48, SW900, SW620 were all maintained in Leibowitz L15 media supplemented with 10% fetal bovine serum and 1% PenStrep and grown in a 37° C. incubator without supplemental CO2. Capan-1 cells were maintained in Iscove's Modified Dulbecco's Medium (ATCC 30-2005) containing 20% fetal bovine serum and 1% PenStrep and grown in a 37° C. incubator containing 5% CO2.
For dose-response assays, SW480 cells were plated into 96 well plates (1 million/plate, ˜10,000/well, 250 μL media/well). Cells were allowed to settle and adhere to plate bottom overnight Compounds were placed in 500 μL media and mixed. Then 250 μL compounds+media was placed in an intermediate plate in row A. Rows B through H were filled with 125 μL media. […] Luminescence was read with FLx800 (BioTek Instruments).

With `Cc1nc(-c2ccc(CNC(=O)c3cc(CC(C)C)nn3C)cc2)no1` [Structure 2, 3-isobutyl-1-methyl-N-(4-(5-methyl-1,2,4-oxadiazol-3-yl)benzyl)-1H-pyrazole-5-carboxamide] the “phosphorylated ERK (T202/Y204)” value [1] was “dramatically decrease phosphorylated ERK”, the “not cytotoxic at concentrations up to” value [2] was greater than 40 µM and the “body weight or grooming habits versus dosing vehicle treated animals” value [3] was “no statistically significant difference”. The “clinical chemistry changes versus dosing vehicle treated animals” value [3] was “no significant clinical chemistry changes”, the ALB ([3]; Day 6) was 3.88 ± 0.30 g/dL and the ALP ([3]; Day 6) was 66.50 ± 8.80 U/L. The ALT ([3]; Day 6) was 59.00 ± 32.50 U/L, the AMY ([3]; Day 6) was 871.50 ± 74.70 U/L and the BUN ([3]; Day 6) was 18.25 ± 4.10 mg/dL. The CRE ([3]; Day 6) was 0.34 ± 0.10 mg/dL, the “Ca^++” value ([3]; Day 6) was 9.43 ± 0.40 mg/dL and the GLOB ([3]; Day 6) was 1.23 ± 0.10 g/dL. The GLU ([3]; Day 6) was 234.25 ± 31.70 mg/dL, the GRA ([3]; Day 6) was 1.23 ± 0.20 10^9/l and the “GRA (%)” value ([3]; Day 6) was 19.03 ± 3.70%. The HCT ([3]; Day 6) was 44.34 ± 4.60%, the HGB ([3]; Day 6) was 15.23 ± 1.70 g/dL and the “K^+” value ([3]; Day 6) was 5.35 ± 0.40 mmol/L. For the same molecule, the LYM ([3]; Day 6) was 5.17 ± 1.80 10^9/l, the “LYM (%)” value ([3]; Day 6) was 76.18 ± 3.50% and the MCH ([3]; Day 6) was 16.15 ± 0.40 pg. For the same molecule, the MCHC ([3]; Day 6) was 34.35 ± 1.30 g/dL, the MCV ([3]; Day 6) was 47.00 ± 2.40 fL and the MON ([3]; Day 6) was 0.33 ± 0.10 10^9/l. For the same molecule, the “MON (%)” value ([3]; Day 6) was 4.85 ± 0.40%, the MPV ([3]; Day 6) was 7.10 ± 0.60 fL and the “NA^+” value ([3]; Day 6) was 147.00 ± 0.80 mmol/L. For the same molecule, the PCT ([3]; Day 6) was 0.31 ± 0.10%, the PDWc ([3]; Day 6) was 33.08 ± 3.40% and the PHOS ([3]; Day 6) was 8.13 ± 1.00 mg/dL. The PLT ([3]; Day 6) was 448.50 ± 193.10 10^9/l, the RBC ([3]; Day 6) was 9.44 ± 1.00 10^12/l and the RDWc ([3]; Day 6) was 17.40 ± 0.40%. The TBIL ([3]; Day 6) was 0.43 ± 0.00 mg/dL, the TP ([3]; Day 6) was 5.08 ± 0.20 g/dL and the WBC ([3]; Day 6) was 6.72 ± 2.00 10^9/l. The “tumor volume versus vehicle control” value [4] was “statistically significant reduction in tumor volume; also recorded: mitigates the growth of SW480 cells” and the pIC50 (Capan-1 cells) was 5.89.
